Laboratory results as given in PMC9701179, “New tricyclic systems as photosensitizers towards triple negative breast cancer cells” (Archives of Pharmacal Research, 2022).

Tests used:
Assay type in all cases: cell-based, human
MDA-MB-231 cells [1] = test: Quantification of thiols (DTNB assay); conditions: MDA-MB-231, 25 µM; for Intracellular thiols (qualitative): UVA 2.0 J/cm^2
Procedure: The MDA-MB-231 cells (2 × 10^5) were seeded in a six-well plate in growth medium (4 mL). After 24 h, cells were incubated with tested compounds (25 µM) for 90 min, and after that exposed to UVA light (2.0 J/cm^2). Subsequently, after 24 h, the thiol content was measured as previously described (Rigobello et al. [2009]).
Fig. 4 Cellular ROS production (A) and total thiol redox state (B). A Effect of UVA activated tested compounds (25 µM) or antimycin (3 µM) on hydrogen peroxide formation in MDA-MB-231 cancer cells. B Sulfhydryl content in MDA-MB-231 cancer cells incubated for 24 h with UVA activated tested compounds. The sulfhydryl group amount was determined by the DTNB assay. Error bars indicate S.D

MDA-MB-231 cells [2] = test: Mitochondrial membrane potential (Mito-ID kit); conditions: MDA-MB-231, UVA 2.0 J/cm^2; CCCP positive control
Procedure: The ΔΨ was assayed using the Mito-ID® Membrane Potential Kit according to the manufacturer’s instructions (Enzo Life Sciences, Farmingdale, NY, USA) as previously described. Briefly, MDA-MB-231 cells (8 × 10^3 per well) were seeded in 96-well plates; after 24 h, cells were washed with PBS and loaded with Mito-ID Detection Reagent for 30 min at 37 °C in the dark. Afterwards, cells were incubated with increasing concentrations of tested compounds for 90 min and after that exposed to UVA light (2.0 J/cm^2). CCCP (Carbonyl cyanide 3-chlorophenyl-hydrazone) was used as positive control. Fluorescence intensity was estimated using a VICTOR X3 (PerkinElmer, USA) plate reader at 490 (excitation) and 590 nm (emission).
Induction of ROS production can in turn prompt the collapse of mitochondrial membrane potential as well as loss of mitochondrial integrity and functioning. […] MDA-MB-231 TNBC cells were treated with tested compounds upon UVA irradiation and the percentage of cells with hypopolarized mitochondrial membrane potential was determined fluorometrically by means of the Mito-ID® Membrane Potential Kit.
(§1) Fig. 5 Effects on mitochondrial membrane potential (A) and cell death induction (B) in human breast MDA-MB-231 cancer cells. A Cells were treated with 7h and 8e and stained with TMRM (10 nM). Fluorescence was estimated at 490 nm (excitation) and 590 nm (emission). Data are the means of five independent experiments. Error bars indicate S.D. * P < 0.05. B Cells were treated with concentrations of 7h and 8e equal to IC50 for 24 h and stained with the fluorescent dyes Hoechst 33342 and PI

MDA-MB-231 cells [3] = test: Cell death induction (Hoechst / PI staining, confocal microscopy); conditions: MDA-MB-231, IC50 doses, 24 h
Procedure: MDA-MB-231 cells were seeded into 8-well tissue-culture slides (BD Falcon, Bedford, MA, USA) at 5 × 10^4 cells/well (0.8 cm^2). After 24 h, the cells were washed twice with PBS and, following 24 h of treatment with IC50 doses of the tested compound, cells were stained for 5 min with 10 µg/mL of Hoechst 33258 (20-(4-hydroxyphenyl)-5-(4-methyl-1-piperazinyl)-2,50-bi-1H-benzimidazole trihydrochloride hydrate, Sigma-Aldrich, St.Louis, MI, USA) or propidium iodide (PI, Sigma-Aldrich, St.Louis, MI, USA) in PBS. Samples were examined at × 5 and × 40 magnification in a Zeiss LSM 800 confocal microscope using the Zeiss ZEN 2.3 software system.
as §1
Loss of mitochondrial transmembrane potential is a crucial step in the activation of intrinsic apoptotic cell death. […] MDA-MB-231 cells were treated with IC50 doses of tested compounds and apoptotic cell death induction was confirmed through a Hoechst 33342 staining assay.

Row | Compound | Intracellular thiols (qualitative) (MDA-MB-231 cells [1]) | Decrease of intracellular sulfhydryl content (MDA-MB-231 cells [1]; UVA 2.0 J/cm^2, after 24 h of exposure) | Cells with depolarized mitochondria (mitochondrial membrane potential) (MDA-MB-231 cells [2]) | Apoptotic cell death induction (Hoechst 33342 staining) (MDA-MB-231 cells [3]) | Necrosis induction (PI staining) (MDA-MB-231 cells [3])
1 | CCOC(=O)c1ccc2n1CCc1cc(S(=O)(=O)c3ccccc3)c(OC)nc1-2 [Compound 7h, Ethyl 3-(benzenesulfonyl)-2-methoxy-5,6-dihydropyrrolo[1,2-h][1,7]naphthyridine-8-carboxylate] | significantly decreased | about 45% | significant increase of cells with depolarized mitochondria | positive to Hoechst 33342 staining | poor stained with PI
2 | CCOC(=O)c1ccc2n1CCCc1cc(S(=O)(=O)c3ccccc3)c(OC)nc1-2 [Compound 8e, Ethyl 3-(benzenesulfonyl)-2-methoxy-6,7-dihydro-5H-pyrido[2,3-c]pyrrolo[1,2-a]azepine-9-carboxylate] | significantly decreased | – | significant increase of cells with depolarized mitochondria | positive to Hoechst 33342 staining | poor stained with PI
